Key:
Format in all cases: in vivo
[1] = system: Phakopsora pachyrhizi; test: Protective control of soy bean rust on soy beans; settings: 32 ppm active compound, soy bean seedlings sprayed 2 days before inoculation, assessed after fourteen days; untreated plants 100%
Protocol: (§1) This mixture was added to 25 mg of the compound to give a total of 5 mL. Water was then added to total volume of 100 mL. This stock solution was diluted with the described solvent-emulsifier-water mixture to the given concentration.
II.2) Protective Control of Soy Bean Rust on Soy Beans Caused by Phakopsora pachyrhizi
Leaves of pot-grown soy bean seedlings were sprayed to run-off with an aqueous suspension, containing the concentration of active ingredient or their mixture as described below. The plants were allowed to air-dry. The trial plants were cultivated for 2 day in a greenhouse chamber at 23 to 27° C. and a relative humidity between 60 and 80%.Then the plants were inoculated with spores of Phakopsora pachyrhizi. To ensure the success the artificial inoculation, the plants were transferred to a humid chamber with a relative humidity of about 95% and 20 to 24° C. for 24 hours. The trial plants were cultivated for fourteen days in a greenhouse chamber at 23 to 27° C. and a relative humidity between 60 and 80%. The extent of fungal attack on the leaves was visually assessed as % diseased leaf area.

[2] = system: Puccinia recondite; test: Curative control of brown rust on wheat; settings: 32 ppm active compound, wheat seedlings sprayed after inoculation, assessed after 8 days; untreated plants 90%
Protocol: as §1
II.3) Curative Control of Brown Rust on Wheat Caused by Puccinia Recondite
The first two developed leaves of pot-grown wheat seedling were dusted with spores of Puccinia recondite. To ensure the success the artificial inoculation, the plants were transferred to a humid chamber without light and a relative humidity of 95 to 99% and 20 to 24° C. for 24 hours. The next day the plants were cultivated for 3 days in a greenhouse chamber at 20 to 24° C. and a relative humidity between 65 and 70%. Then the plants were sprayed to run-off with an aqueous suspension, containing the concentration of active ingredient or their mixture as described below. The plants were allowed to air-dry. Then the trial plants were cultivated for 8 days in a greenhouse chamber at 20 to 24° C. and a relative humidity between 65 and 70%. The extent of fungal attack on the leaves was visually assessed as % diseased leaf area.

[3] = system: Phakopsora pachyrhizi; test: Curative control of soy bean rust on soy beans; settings: 32 ppm active compound, soy bean seedlings sprayed after inoculation, assessed after 14 days; untreated plants 100%
Protocol: as §1
II.1) Curative Control of Soy Bean Rust on Soy Beans Caused by Phakopsora pachyrhizi
Leaves of pot-grown soy bean seedlings were inoculated with spores of Phakopsora pachyrhizi. To ensure the success of the artificial inoculation, the plants were transferred to a humid chamber with a relative humidity of about 95% and 20 to 24° C. for 24 hours. The next day the plants were cultivated for 3 days in a greenhouse chamber at 23 to 27° C. and a relative humidity between 60 and 80%. Then the plants were sprayed to run-off with an aqueous suspension, containing the concentration of active ingredient or their mixture as described below. The plants were allowed to air-dry. Then the trial plants were cultivated for 14 days in a greenhouse chamber at 23 to 27° C. and a relative humidity between 60 and 80%. The extent of fungal attack on the leaves was visually assessed as % diseased leaf area.

SMILES: O=C(NC12CC(C1)C2)c1ccc(-c2noc(C(F)(F)F)n2)cc1 [Ex-1, N-(1-bicyclo[1.1.1]pentanyl)-4-[5-(trifluoromethyl)-1,2,4-oxadiazol-3-yl]benzamide]
- diseased leaf area [1]: 0%
- diseased leaf area [2]: 2%
- diseased leaf area [3]: 0%
